The values below come from patent publication US20220409548A1, “AMORPHOUS SOLID DISPERSION OF PYRAZOLE-AMIDE COMPOUND” (JAPAN TOBACCO INC., priority 2019, published 2022).

Data set [1] relates to pyruvate dehydrogenase kinase (PDHK). As to conditions: described in patent document 1 (WO 2014/142290); cited from earlier work.
A short description of data set [2]: Precipitation test in acidic media (pH 1.2). The format is physicochemical. The conditions noted are these: ethanol solution 100 mg/mL into JP 1st fluid pH 1.2, 450 mL; addition of copolyvidone, methylcellulose or hypromellose (0.01 g) vs HPMCAS, polyvinyl alcohol or no polymer; FIG. 3. The procedure:
The dissolution test was performed using a dissolution tester (trade name: NTR-VS6P, manufactured by Toyama Sangyo Co., Ltd.) that conforms to the Japanese Pharmacopoeia Dissolution Test Method 2 (Paddle Method), at paddle rotating speed 75 rpm, test media amount 450 mL. An amount equivalent to 100 mg of the compound of the formula [I] was added to the test media, and the dissolved amount of the compound of the formula [I] was measured at each sampling point with a spectrophotometer (UV-1600, manufactured by Shimadzu Corporation).
The precipitation behavior of the compound of the formula [I], dissolved in ethanol (concentration: 100 mg/mL), in the following 6 types of test medium was evaluated by the same test method as in Experimental Example 1. […]

As to `CC(C)(O)CCOc1cc(-c2cnn(C(C)(C)C(N)=O)c2)c2c(c1)[C@@](O)(C(F)(F)F)c1ccccc1-2` [compound of the formula [I], 2-{4-[(9R)-9-hydroxy-2-(3-hydroxy-3-methylbutyloxy)-9-(trifluoromethyl)-9H-fluoren-4-yl]-1H-pyrazol-1-yl}-2-methylpropanamide], the “pyruvate dehydrogenase kinase (PDHK) inhibitory activity” value in data set [1] is “have a pyruvate dehydrogenase kinase (PDHK) inhibitory activity”. Also, in data set [2], the “precipitation behavior in pH 1.2 test media” value is recorded as “significantly suppressed the precipitation”.
